These results are taken from ChEMBL document CHEMBL3639109, “Macrocyclic integrase inhibitors” (2013).

Molecules are shown by their SMILES. pIC50: −log10 of the molar value.

The target in this test is Gag-Pol polyprotein (Human immunodeficiency virus type 1 group M subtype B (isolateBRU/LAI) (HIV-1), UniProt P03367). The experiment in a line: Inhibition Assay: Inhibition of HIV integrase.
As usually defined, the pIC50 is the IC50 on a negative log10 scale, so that one unit is a factor of ten. Low readings indicate a large IC50, high ones a small IC50. In the case of `CCOC(=O)c1cc(F)ccc1C#N`, the pIC50 is 4.17.

`COC(=O)c1nc(Br)c2cccnc2c1OS(=O)(=O)c1ccc(C)cc1` had a pIC50 of 6.70.

`CNS(=O)(=O)CCCCCl` had a pIC50 of 6.00.

The compound `CNS(=O)(=O)CCCCN` showed a negative-log IC50 (pIC50) of 6.44.

The compound `CNS(=O)(=O)CCCCN=[N+]=[N-]` had a pIC50 of 6.60.

In turn, `CNS(=O)(=O)CCCCNC(=O)OC(C)(C)C` showed a negative-log IC50 (pIC50) of 5.92.

`COC(=O)c1nc(Br)c2cccnc2c1OCc1ccccc1` gave a pIC50 of 6.02.

`CNS(=O)(=O)CCCCC#N` had a pIC50 of 5.80.
